Measured values published in patent US20020082273A1, “Agents for use in the treatment of alzheimer's disease” (priority 1998, published 2002).
Marks after values point to notes of the source that are not given here.

Key:
Aβ = assay: Effect of agents on Cu^2+-induced SDS-resistant Aβ polymerization; type: biochemical, human
Description: Cu^2+-induced SDS-resistant oligomerization of Aβ: Aβ (2.5 μM), 150 mM NaCl, 20 mM hepes (pH 6.6, 7.4, 9) with or without ZnCl2 or CuCl2. Following incubation (37° C.), aliquots of each reaction (2 ng peptide) were collected at 0 d, 1 d, 3 d and 5 d and western blotted using anti-Aβ monoclonal antibody 8E10 (FIG. 9). Migration of the molecular size markers are indicated (kDa). […] Cu^2+ (2-30 μM) induced SDS-resistant polymerization of peptide. […] It should be noted that other means of visualizing and/or determining the presence or absence of polymerization other than western blot analysis may be used. Such other means include but are not limited to density sedimentation by centrifugation of the samples.
It is possible that the decreased polymerization may be due to chelation of Cu^2+ by BC, however given the low binding affinity of BC for Cu^2+ compared with Aβ, it seems likely that the chelation of Cu^+ by BC prevents it from inducing SDS-resistant Ad polymerization. Therefore, Aβ may undergo a hydroxyl radical modification that promotes its assembly into SDS-resistant polymers.

[1] = system: Aβ deposits of AD-affected brain; assay: Extraction (solubilization) of Aβ from post-mortem AD brain tissue homogenates, western blot densitometry; type: biochemical, human; conditions: for Effect of Chelators upon extraction of Aβ (% change from control): mean n = 6 AD brain samples, above PBS extraction alone
Description: Identical regions of frontal cortex (0.5 g) from post-mortem brains of individuals with AD, as well as non-AD conditions, were homogenized in TBS, […] ±metal chelators.
0.5 g of prefrontal cortex was dissected and homogenized in PBS ±chelator as indicated. The homogenate was then centrifuged (100,000 g) and the supernatant removed, and a sample taken for western blot assay using anti-Aβ specific antibodies after Tricine PAGE. Densitometry was performed against synthetic peptide standards.
Densitometry of Aβ western blots (FIGS. 19A-19C) was performed for a series of 6 AD brain samples homogenized in the presence of chelators as indicated.
Next the ability of clioquinol to extract Aβ deposits from human brain was examined. […] Fragments of prefrontal cortex from individual post-mortem samples with the histopathological diagnosis of AD were homogenized in PBS, pH 7.4, and then pelleted after centrifugation. The pellets were then washed with agitation twice for 30 minutes, 4° C., with PBS or PBS containing clioquinol (100% =0.8 μM clioquinol). The suspension was then pelleted (10,000 g for 30 minutes) and the supernatant removed (S1) for western blot analysis using Aβ-specific antibodies (illustrated). The pellet was treated a second time in this experiment with agitation and centrifugation, and the second supernatant (S2) analysed.
Soluble Aβ (ng/g tissue) was determined as described. Total Aβ was determined following formic acid extraction of otherwise untreated tissue.
(§1) Suitable quantities of gray matter from each subject were minced to serve as pools of homogenous tissue. […] To obtain the soluble fraction, the homogenates were centrifuged at 100,000× g for 30 min (Beckman J180, Beckman instruments, Fullerton, California) and the supernatant collected in 1 ml aliquots and stored on ice or immediately frozen at −70° C. In each experiment, all protein was precipitated from 1 ml of supernatant from each treatment group using 1:5 ice cold 10% trichloracetic acid and pelleted in a bench top microfuge (Heraeus, Osteroder, Germany) at 10,000× g. The remaining pellet was frozen at −70° C.
Precipitated protein was subjected to SDS polyacrylamide gel electrophoresis (SDS-PAGE) on Novex pre-cast 10-20% Tris-Tricine gels followed by Western transfer onto 0.2 μm nitrocellulose membrane (Biorad, Hercules, Calif.). […] Each gel included two or more lanes containing known quantities of synthetic Aβ which served as internal reference standards. Blot images were captured by a Relisys scanner with transparency adapter (Teco Information Systems, Taiwan, ROC) and densitometry conducted using the NIH Image 1.6 program (National Institutes for Health, USA. Modified for PC by Scion Corporation, Frederick, Md.), calibrated using a step diffusion chart. For quantitation of Aβ in brain extracts, the internal reference standards of synthetic Aβ were utilized to produce standard curves from which values were interpolated.

[2] = Table 1; K=[ML]/[M][L]; cited from earlier work
[3] = Table 1; K=[ML]/[M][L]; cited from earlier work; remark: listed apart in the source
[4] = cited from earlier work
[5] = cited from earlier work; remark: listed apart in the source
[6] = cited from earlier work; remark: listed apart in the source
[7] = Table 1; K=[ML]/[M][L]; cited from earlier work; remark: listed apart in the source
[8] = system: Aβ deposits of age-matched control brain; assay: Extraction of Aβ from age-matched non-AD control brain tissue; type: biochemical, human; conditions: chelator 2 mM
Description: as §1
Precipitated protein was subjected to SDS polyacrylamide gel electrophoresis (SDS-PAGE) on Novex pre-cast 10-20% Tris-Tricine gels followed by Western transfer onto 0.2 μm nitrocellulose membrane (Biorad, Hercules, Calif.). Aβ was detected using the WO2, G210 or G211 monoclonal antibodies (Ida, N., et al., J. Biol. Chem., 271:22908 (1996)) in combination with HRP-conjugated rabbit anti-mouse IgG (Dako, Denmark), and visualized using chemiluminescence (ECL, Amersham Life Science, Little Chalfont, Buckinghamshire, UK). Each gel included two or more lanes containing known quantities of synthetic Aβ which served as internal reference standards. Blot images were captured by a Relisys scanner with transparency adapter (Teco Information Systems, Taiwan, ROC) and densitometry conducted using the NIH Image 1.6 program (National Institutes for Health, USA. Modified for PC by Scion Corporation, Frederick, Md.), calibrated using a step diffusion chart. For quantitation of Aβ in brain extracts, the internal reference standards of synthetic Aβ were utilized to produce standard curves from which values were interpolated.

[9] = cited from earlier work; remark: listed apart in the source
[10] = Residual metals in post-centrifugation pellets of brain homogenates (ICP-AES); type: biochemical, human; design: Residual Metal Levels, Mg: unit not given here; conditions: for Residual Al in extracted pellet / Residual Ca in extracted pellet / Residual Cu in extracted pellet / Residual Fe in extracted pellet / Residual Mg in extracted pellet / Residual Zn in extracted pellet: Table 6
[11] = Table 3, TPEN 0.1 mM, AD (n=6) and healthy controls (n=4)
[12] = Table 7, 10 AD specimens, 0.1 mM TPEN

Cl.O=C(O)CCP(CCC(=O)O)CCC(=O)O [TCEP, Tris(2-Carboxyethyl)-Phosphine Hydrochloride]
effect on Cu^2+-induced SDS-resistant Aβ polymerization (Aβ): significantly reduced the level of polymerization

c1ccc(CN(CCN(Cc2ccccn2)Cc2ccccn2)Cc2ccccn2)nc1 [TPEN, N,N,N′,N′-tetrakis [2-pyridyl-methyl] ethylenediamine]
Effect of Chelators upon extraction of Aβ (% change from control) ([1]; 0.1 mM chelator): 182% | Effect of Chelators upon extraction of Aβ (% change from control) ([1]; 2.0 mM chelator): 241% | mean increase of Aβ solubilization over PBS alone ([1]; 6 AD brains, 0.1 or 2.0 mM): around 2 fold | Extractable Aβ ([1]; AD subject 1, chelator 2 mM): 0.21 µg/g | Extractable Aβ (% of total) ([1]; AD subject 1, chelator 2 mM): (0.2) % | Extractable Aβ ([1]; AD subject 2, chelator 2 mM): 3.40 µg/g | Extractable Aβ (% of total) ([1]; AD subject 2, chelator 2 mM): (4.4) % | Extractable Aβ ([1]; AD subject 3, chelator 2 mM): 1.80 µg/g | Extractable Aβ (% of total) ([1]; AD subject 3, chelator 2 mM): (2.25) % | Extractable Aβ ([1]; AD subject 4, chelator 2 mM): 5.50 µg/g | Extractable Aβ (% of total) ([1]; AD subject 4, chelator 2 mM): (9.2) % | Extractable Aβ ([1]; AD subject 5, chelator 2 mM): 5.00 µg/g | Extractable Aβ (% of total) ([1]; AD subject 5, chelator 2 mM): (3.5) % | Extractable Aβ ([1]; AD subject 6, chelator 2 mM): 0.28 µg/g | Extractable Aβ (% of total) ([1]; AD subject 6, chelator 2 mM): (1.75) % | Extractable Aβ (% of total), X (mean) ([1]; AD subjects 1-6, chelator 2 mM): (4.6) % | Extractable Aβ, X (mean) ([1]; AD subjects 1-6, chelator 2 mM): 2.73 µg/g | X C/PBS (mean chelator / PBS) ([1]; AD tissue, chelator 2 mM): 2.60 | efficiency in extracting Aβ ([1]; neutral saline buffer, TPEN 5 μM): highly efficient | LogK, Mg [2]: 0 | LogK, Co [3]: 0 | LogK, Cu ([4]; Table 1, K=[ML]/[M][L]): 20.2 | Stability constant logK10, Cu ([4]; Table 5, NIST database): 20.2 | LogK, Ca ([5]; Table 1, K=[ML]/[M][L]): 3.0 | Stability constant logK10, Ca ([5]; Table 5, NIST database): 3 | LogK, Fe ([6]; Table 1, K=[ML]/[M][L]): 14.4 | Stability constant logK10, Fe ([6]; Table 5, NIST database): 14.4 | LogK, Al [7]: 0 | Extractable Aβ ([8]; AC subject 1): 0.22 µg/g | Extractable Aβ (% of total) ([8]; AC subject 1): (32.0) % | Extractable Aβ ([8]; AC subject 2): 0.38 µg/g | Extractable Aβ (% of total) ([8]; AC subject 2): (9.0) % | Extractable Aβ ([8]; AC subject 3): 0.26 µg/g | Extractable Aβ (% of total) ([8]; AC subject 3): (9.7) % | Extractable Aβ ([8]; AC subject 4): 0.09 µg/g | Extractable Aβ (% of total) ([8]; AC subject 4): (3.0) % | Extractable Aβ ([8]; AC subject 5): 1.06 µg/g | Extractable Aβ (% of total) ([8]; AC subject 5): (29.5) % | Extractable Aβ (% of total), X (mean) ([8]; AC subjects 1-5): (16.7) % | Extractable Aβ, X (mean) ([8]; AC subjects 1-5): 0.40 µg/g | X C/PBS (mean chelator / PBS) ([8]; age-matched control tissue): 1.6 | LogK, Zn ([9]; Table 1, K=[ML]/[M][L]): 15.4 | Stability constant logK10, Zn ([9]; Table 5, NIST database): 15.4 | Residual Al in pellet [10, 11]: 65 mg/kg | Residual Ca in pellet [10, 11]: (210) mg/kg | Residual Cu in pellet [10, 11]: 9.8 mg/kg | Residual Fe in pellet [10, 11]: 239 mg/kg | Residual Mg in pellet [10, 11]: 230 mg/kg | Residual Zn in pellet [10, 11]: 33.2* mg/kg | Residual Al in extracted pellet ([10]; chelator 0.001 mM): 34 mg/kg | Residual Ca in extracted pellet ([10]; chelator 0.001 mM): 490 mg/kg | Residual Cu in extracted pellet ([10]; chelator 0.001 mM): 12 mg/kg | Residual Fe in extracted pellet ([10]; chelator 0.001 mM): 512 mg/kg | Residual Mg in extracted pellet ([10]; chelator 0.001 mM): 192 mg/kg | Residual Zn in extracted pellet ([10]; chelator 0.001 mM): 42 mg/kg | Residual Al in extracted pellet ([10]; chelator 0.004 mM): 22 mg/kg | Residual Ca in extracted pellet ([10]; chelator 0.004 mM): 322 mg/kg | Residual Cu in extracted pellet ([10]; chelator 0.004 mM): 10 mg/kg | Residual Fe in extracted pellet ([10]; chelator 0.004 mM): 317 mg/kg | Residual Mg in extracted pellet ([10]; chelator 0.004 mM): 147 mg/kg | Residual Zn in extracted pellet ([10]; chelator 0.004 mM): 28 mg/kg | Residual Al in extracted pellet ([10]; chelator 0.04 mM): 22 mg/kg | Residual Ca in extracted pellet ([10]; chelator 0.04 mM): 956 mg/kg | Residual Cu in extracted pellet ([10]; chelator 0.04 mM): 10 mg/kg | Residual Fe in extracted pellet ([10]; chelator 0.04 mM): 322 mg/kg | Residual Mg in extracted pellet ([10]; chelator 0.04 mM): 201 mg/kg | Residual Zn in extracted pellet ([10]; chelator 0.04 mM): 22 mg/kg | Residual Al in extracted pellet ([10]; chelator 0.1 mM): 60 mg/kg | Residual Ca in extracted pellet ([10]; chelator 0.1 mM): 708 mg/kg | Residual Cu in extracted pellet ([10]; chelator 0.1 mM): 12 mg/kg | Residual Fe in extracted pellet ([10]; chelator 0.1 mM): 389 mg/kg | Residual Mg in extracted pellet ([10]; chelator 0.1 mM): 200 mg/kg | Residual Zn in extracted pellet ([10]; chelator 0.1 mM): 21 mg/kg | Residual Al in extracted pellet ([10]; chelator 2.0 mM): 148 mg/kg | Residual Ca in extracted pellet ([10]; chelator 2.0 mM): 419 mg/kg | Residual Cu in extracted pellet ([10]; chelator 2.0 mM): 11 mg/kg | Residual Fe in extracted pellet ([10]; chelator 2.0 mM): 376 mg/kg | Residual Mg in extracted pellet ([10]; chelator 2.0 mM): 200 mg/kg | Residual Zn in extracted pellet ([10]; chelator 2.0 mM): 19 mg/kg | Residual Al in extracted pellet ([10]; chelator 5.0 mM): 16 mg/kg | Residual Ca in extracted pellet ([10]; chelator 5.0 mM): 377 mg/kg | Residual Cu in extracted pellet ([10]; chelator 5.0 mM): 10 mg/kg | Residual Fe in extracted pellet ([10]; chelator 5.0 mM): 307 mg/kg | Residual Mg in extracted pellet ([10]; chelator 5.0 mM): 205 mg/kg | Residual Zn in extracted pellet ([10]; chelator 5.0 mM): 17 mg/kg | Residual Metal Levels, Al [10, 12]: 65 | Residual Metal Levels, Ca [10, 12]: 210 | Residual Metal Levels, Cu [10, 12]: 9.8 | Residual Metal Levels, Fe [10, 12]: 239 | Residual Metal Levels, Mg [10, 12]: 230 | Residual Metal Levels, Zn [10, 12]: 33.2

O=S([O-])S(=O)(=O)[O-].[Na+].[Na+] [sodium metabisulfite]
effect on Cu^2+-induced SDS-resistant Aβ polymerization (Aβ): moderately attenuates
